# Laboratory results reported in publication PMC5137954, “Importance of measuring testosterone in enzyme-inhibited plasma for oral testosterone undecanoate androgen replacement therapy clinical trials” (Future Science OA, 2015).
# Experiments:
# [1] = Stability of T and DHT in NaF/Na2EDTA plasma in presence of TU, DHTU and glucuronides (method validation); conditions: for increase of the T and DHT concentrations (degradation of TU and DHTU into T or DHT): low and high QCs, room temperature or 4°C, long-term storage at -20 and -80°C; for % Bias of dihydrotestosterone concentration / % Bias of testosterone concentration: DHTU and glucuronides
# Method: The methods were validated as per the most recent US FDA and EMA validation guidelines. During the method validation, the accuracy, precision, within-run, between-run, selectivity, matrix effect as well as the stability (stability in whole blood at 4°C, short-term stability in matrix at room temperature, freeze–thaw stability at -20°C/-80°C, long-term stability at -20°C/-80°C) were evaluated.
# The impact of the glucuronide was also assessed in whole blood during sample collection and handling.
# Moreover, the possible degradation of TU and DHTU into T or DHT was assessed when low and high T and DHT level quality controls were submitted to freeze–thaw cycles, incubation at room temperature or 4°C and long-term storage at -20 and -80°C.
# Low QC samples were fortified with testosterone undecanoate (3000 ng/dL), dihydrotestosterone undecanoate (1500 ng/dL), testosterone glucuronide (800 ng/dL) and dihydrotestosterone undecanoate (400 ng/dL). High QC samples were fortified with testosterone undecanoate (219000 ng/dL), dihydrotestosterone undecanoate (235100 ng/dL), testosterone glucuronide (93600 ng/dL) and dihydrotestosterone undecanoate (21900 ng/dL). The%Bias must be within 15%.
# [2] = Clinical study of oral TU: T and DHT in serum versus NaF/Na2 EDTA plasma; conditions: day 84, oral TU twice daily, fed, 15 hypogonadal men; serum vs NaF-Na2 EDTA plasma
# Method: A clinical study was performed at the inVentiv Health Clinical facilities where fifteen asymptomatic hypogonadal male subjects aged 18 to 75 years were administered an oral dose of TU twice daily for 84 consecutive days under fed conditions. Each volunteer was informed on the risk of procedure and risk of the clinical study by signing the informed consent. On day 84, serum and plasma samples were collected predose and at 1.5, 3, 4, 5, 6, 8, 10, 12, 13.5, 15, 16, 17, 18, 20, 22 and 24 h after the morning dose. One of the main objectives of this study part was to compare the levels of T and DHT measured with a validated method in NaF/Na2 EDTA plasma to the levels measured in serum.
# Pharmacokinetic (PK) parameters were assessed using samples collected on day 84: Ln-transformed area under the concentration–time curve (AUC0–24) and the maximum concentration of analyte (Cmax0–24) obtained with the study samples collected from 0–24 h after the morning dose of TU on last study day 84 were used to compare the levels of testosterone, DHT, TU and DHTU measured in serum in comparison to the levels measured in plasma.
# Data reported in Table 5 were obtained from a cohort of 15 subjects undergoing a clinical study of a novel formulation of TU. Table 5 presents summaries of the comparison of the PK results for T and DHT obtained using serum and plasma samples for each analyte. Figure 2 presents the mean analyte concentrations obtained from the serum and plasma samples.
# [3] = conclusion of a published method validation; cited from earlier work
# [4] = in serum or plasma, sometimes; cited from earlier work
# [5] = TU to T conversion depending on the TU spiking solvent used; assay type: in vitro ADME, human
# Method: We decided to investigate further to better understand the discordance between the conclusions. Literature descriptions of sample preparations include a stock solution prepared in ethanol and diluted in phosphate buffer saline (PBS). In the experiments carried out in the study reported here, it was observed that the stock and spiking solution preparation is very important. A stock solution of TU was prepared in ethanol and diluted with PBS prior to being added to whole blood. Results from this procedure were compared with those typically used in our experiments with TU stock prepared and diluted using methanol, prior to being added to whole blood. It was observed that a precipitate occurred in the PBS solution after a freeze–thaw cycle.
# To investigate this effect further, freshly collected whole blood was collected in conventional serum tubes and in NaF/K2C2O4 tubes. Each whole blood tube was fortified with TU at a final concentration of 60,000 ng/dl with solution prepared either in methanol or in ethanol/PBS; each experiment was performed in triplicate. Serum samples were incubated at room temperature for 30 and 60 min, and plasma samples were incubated for 10, 30 and 60 min at 4°C. T and TU were analyzed in the plasma and serum samples obtained.
structure (smiles),measurement,setting,value
"CCCCCCCCCCC(=O)O[C@H]1CCC2C3CCC4CC(=O)CC[C@]4(C)C3CC[C@@]21C (stereo partly drawn) [DHTU, 5-alpha-dihydrotestosterone undecanoate]",increase of the T and DHT concentrations (degradation of TU and DHTU into T or DHT),[1]; freeze–thaw cycles,No increase
"C[C@]12CCC(=O)C[C@@H]1CC[C@@H]1[C@@H]2CC[C@]2(C)[C@@H](O)CC[C@@H]12 [Dihydrotestosterone, dihydrotestosterone]",% Bias of dihydrotestosterone concentration,"[1]; High QC 430.0 ng/dL fortified with TU, Freeze/Thaw at -20°C (4 Cycles)",-10.2%
same,% Bias of dihydrotestosterone concentration,"[1]; High QC 430.0 ng/dL fortified with TU, Freeze/Thaw at -80°C (4 Cycles)",-10.7%
same,% Bias of dihydrotestosterone concentration,"[1]; High QC 430.0 ng/dL fortified with TU, Long-Term at -20°C for 14 days",-4.4%
same,% Bias of dihydrotestosterone concentration,"[1]; High QC 430.0 ng/dL fortified with TU, Long-Term at -80°C for 14 days",-5.4%
same,% Bias of dihydrotestosterone concentration,"[1]; High QC 430.0 ng/dL fortified with TU, Post-Preparative at RT for 69 hrs",8.6%
same,% Bias of dihydrotestosterone concentration,"[1]; High QC 430.0 ng/dL fortified with TU, Short-Term at 4°C for 21 hrs",-0.5%
same,% Bias of dihydrotestosterone concentration,"[1]; High QC 430.0 ng/dL fortified with TU, Short-Term at RT for 23 hrs",2.5%
same,% Bias of dihydrotestosterone concentration,"[1]; High QC 430.0 ng/dL fortified with TU, Whole Blood on Ice for 110 min",0.3%
same,% Bias of dihydrotestosterone concentration,"[1]; Low QC 19.2 ng/dL fortified with TU, Freeze/Thaw at -20°C (4 Cycles)",-14.6%
same,% Bias of dihydrotestosterone concentration,"[1]; Low QC 19.2 ng/dL fortified with TU, Freeze/Thaw at -80°C (4 Cycles)",-14.9%
same,% Bias of dihydrotestosterone concentration,"[1]; Low QC 19.2 ng/dL fortified with TU, Long-Term at -20°C for 14 days",-8.7%
same,% Bias of dihydrotestosterone concentration,"[1]; Low QC 19.2 ng/dL fortified with TU, Long-Term at -80°C for 14 days",-8.1%
same,% Bias of dihydrotestosterone concentration,"[1]; Low QC 19.2 ng/dL fortified with TU, Post-Preparative at RT for 69 hrs",5.1%
same,% Bias of dihydrotestosterone concentration,"[1]; Low QC 19.2 ng/dL fortified with TU, Short-Term at 4°C for 21 hrs",-9.1%
same,% Bias of dihydrotestosterone concentration,"[1]; Low QC 19.2 ng/dL fortified with TU, Short-Term at RT for 23 hrs",-6.1%
same,% Bias of dihydrotestosterone concentration,"[1]; Low QC 19.2 ng/dL fortified with TU, Whole Blood on Ice for 110 min",-6.1%
same,Ratio (serum/plasma) of AUC0–24,[2],122.40%
same,Ratio (serum/plasma) of Cmax0–24,[2],130.61%
"CCCCCCCCCCC(=O)O[C@H]1CCC2C3CCC4=CC(=O)CC[C@]4(C)C3CC[C@@]21C (stereo partly drawn) [TU, Testosterone undecanoate]",increase of the T and DHT concentrations (degradation of TU and DHTU into T or DHT),[1]; freeze–thaw cycles,No increase
same,stability of TU in blood,[3],stable
same,TU concentration higher than the testosterone concentration,[4],20- to 30 times
same,Mean TU Concentration,"[5]; whole blood spiked with TU in PBS, 60,000 ng/dl, 30 min serum RT",3991.0 ng/dL
same,Mean TU Concentration,"[5]; whole blood spiked with TU in PBS, 60,000 ng/dl, 60 min serum RT",5892.3 ng/dL
same,Mean TU Concentration,"[5]; whole blood spiked with TU in PBS, 60,000 ng/dl, NaF/K2C2O4 plasma 10 min 4°C",74408.7 ng/dL
same,Mean TU Concentration,"[5]; whole blood spiked with TU in PBS, 60,000 ng/dl, NaF/K2C2O4 plasma 30 min 4°C",54088.0 ng/dL
same,Mean TU Concentration,"[5]; whole blood spiked with TU in PBS, 60,000 ng/dl, NaF/K2C2O4 plasma 60 min 4°C",26618.7 ng/dL
same,Mean TU Concentration,"[5]; whole blood spiked with TU in methanol, 60,000 ng/dl, 30 min serum RT",97110.3 ng/dL
same,Mean TU Concentration,"[5]; whole blood spiked with TU in methanol, 60,000 ng/dl, 60 min serum RT",96132.3 ng/dL
same,Mean TU Concentration,"[5]; whole blood spiked with TU in methanol, 60,000 ng/dl, NaF/K2C2O4 plasma 10 min 4°C",97235.0 ng/dL
same,Mean TU Concentration,"[5]; whole blood spiked with TU in methanol, 60,000 ng/dl, NaF/K2C2O4 plasma 30 min 4°C",95628.0 ng/dL
same,Mean TU Concentration,"[5]; whole blood spiked with TU in methanol, 60,000 ng/dl, NaF/K2C2O4 plasma 60 min 4°C",93816.3 ng/dL
"C[C@]12CC[C@H]3[C@@H](CCC4=CC(=O)CC[C@@]43C)[C@@H]1CC[C@@H]2O[C@@H]1O[C@H](C(=O)O)[C@@H](O)[C@H](O)[C@H]1O [Testosterone glucuronide, testosterone glucuronide]",impact on the quantitation of T and DHT,"[1]; low and high QCs fortified with testosterone glucuronide, freeze–thaw cycles, room temperature, 4°C, long-term storage at -20 or -80°C",no impact
"C[C@]12CC[C@H]3[C@@H](CCC4=CC(=O)CC[C@@]43C)[C@@H]1CC[C@@H]2O [Testosterone, testosterone]",% Bias of testosterone concentration,"[1]; High QC 2300.0 ng/dL fortified with TU, Freeze/Thaw at -20°C (4 Cycles)",-3.3%
same,% Bias of testosterone concentration,"[1]; High QC 2300.0 ng/dL fortified with TU, Freeze/Thaw at -80°C (4 Cycles)",-3.4%
same,% Bias of testosterone concentration,"[1]; High QC 2300.0 ng/dL fortified with TU, Long-Term at -20°C for 14 days",-1.8%
same,% Bias of testosterone concentration,"[1]; High QC 2300.0 ng/dL fortified with TU, Long-Term at -80°C for 14 days",-3.1%
same,% Bias of testosterone concentration,"[1]; High QC 2300.0 ng/dL fortified with TU, Post-Preparative at RT for 69 hrs",10.1%
same,% Bias of testosterone concentration,"[1]; High QC 2300.0 ng/dL fortified with TU, Short-Term at 4°C for 21 hrs",0.6%
same,% Bias of testosterone concentration,"[1]; High QC 2300.0 ng/dL fortified with TU, Short-Term at RmT for 23 hrs",0.2%
same,% Bias of testosterone concentration,"[1]; High QC 2300.0 ng/dL fortified with TU, Whole Blood on ice for 110 min",8.3%
same,% Bias of testosterone concentration,"[1]; Low QC 40.0 ng/dL fortified with TU, Freeze/Thaw at -20°C (4 Cycles)",-5.8%
same,% Bias of testosterone concentration,"[1]; Low QC 40.0 ng/dL fortified with TU, Freeze/Thaw at -80°C (4 Cycles)",-5.8%
same,% Bias of testosterone concentration,"[1]; Low QC 40.0 ng/dL fortified with TU, Long-Term at -20°C for 14 days",-1.9%
same,% Bias of testosterone concentration,"[1]; Low QC 40.0 ng/dL fortified with TU, Long-Term at -80°C for 14 days",2.1%
same,% Bias of testosterone concentration,"[1]; Low QC 40.0 ng/dL fortified with TU, Post-Preparative at RT for 69 hrs",14.0%
same,% Bias of testosterone concentration,"[1]; Low QC 40.0 ng/dL fortified with TU, Short-Term at 4°C for 21 hrs",-4.2%
same,% Bias of testosterone concentration,"[1]; Low QC 40.0 ng/dL fortified with TU, Short-Term at RmT for 23 hrs",-2.5%
same,% Bias of testosterone concentration,"[1]; Low QC 40.0 ng/dL fortified with TU, Whole Blood on ice for 110 min",-11.1%
same,Ratio (serum/plasma) of AUC0–24,[2],130.02%
same,Ratio (serum/plasma) of Cmax0–24,[2],134.01%
